Source: patent US5780307A, “Immunosuppressive drug binding proteins and use” (priority 1996, dated 1998)
“And” between values parts separate entries of the source, which are not always exact repeats. Equal values may be shown once. Read-outs that look alike come from different tables or passages of the source. Starred links: 1 amine or outer side, 2 acyl side, 3 side chain; linkers in the order of their positions; H or OH if unused. Residues, ends and D or L forms follow the SMILES beside them. *: point of attachment. pNA = O=[N+]([O-])c1ccc(N*)cc1; Suc = O=C(CCC(=O)[*:2])[*:1]

Assays:
[1] = test system: 50-54 kDa binding protein (JURKAT cells)
Experimental: (§3) Association constants, specific binding activities, and numbers and types of binding sites can be obtained from Scatchard and Hill plots, using EBDA and LIGAND software.
(§4) Bound and free ligand were separated using the above-described LH-20 system.
(§5) The binding proteins purified in Example 5 were incubated with increasing amounts of labeled ligand and the binding data analyzed according to Scatchard.

[2] = test system: 34-37 kDa immunophilin (Jurkat cells); assay: Radioreceptor assay / Scatchard analysis, purified 34-37 kDa immunophilin; assay type: binding
Experimental: Receptor density (Bmax), affinity (Kd) and Hill coefficients (nH) were obtained using EBDA and Ligand computer programs. Radioreceptor assay: The radioreceptor assay was done in a final volume of 250 μl. […] To assess total binding, 25 μL of 50 % ethanol alone was added to maintain a constant level of ethanol in the reaction. 100-150 μL of 5 mM phosphate buffer, pH 6.8, containing 0.2% Tween 20, was added. 2-5 μg protein solution in 50-100 μL was added to obtain a final reaction volume of 250 μL. Following a 20 minute incubation at 25° C. on a shaker, 200 μL of the reaction mixture was added to Sephadex LH-20 columns (Pharmacia Biotech, Piscataway, N.J., U.S.A.,1.8 mL bed volume) equilibrated with LH-20 assay buffer (20 mM Tris buffer, pH 7.2, 5 mM β-mercaptoethanol and 0.05% sodium azide).
SDS-PAGE electrophoresis: The protein from the gel filtration fraction was analyzed for purity using 10% SDS-PAGE electrophoresis in the presence and absence of mercaptoethanol and visualized using DAIICHI-II silver staining. […] The data were analyzed using EBDA and Ligand computer programs.

[3] = target: 10-12 kDa binding protein (JURKAT cells) (Homo sapiens, UniProt P62942); conditions: Scatchard analysis, 10-12 kDa (8-12 kDa) protein
Experimental: as §3, §5

[4] = test system: purified 50-54 kDa binding protein (JURKAT cells); assay: Binding competition curves, purified 50-54 kDa binding protein, LH-20 separation
Experimental: Binding of [^3 H-dihydro]-FK506 to this protein was inhibited in a dose-dependent manner by rapamycin (B50 =0. 1 nM), whereas binding of [^3 H]-CSA to this protein was not affected by rapamycin at concentrations as high as 300 nM.

[5] = test system: 50-54 kDa binding protein (JURKAT cells); assay: Scatchard / direct binding to purified 50-54 kDa immunophilin
Experimental: as §3, §4, §5

[6] = test system: JURKAT cell cytosol protein fractions; assay: Binding and competition in JURKAT cytosol protein fractions; design: competition for CsA binding to 16-18 kDa and 50-54 kDa fractions / inhibition of [3H-dihydro]-FK-506 binding in all fractions: unit of the concentration uncertain
Experimental: This fraction (3.02 mg in 2.7 mL) was then passed through a BioSil-125 HPLC column at a flow rate of 1.0 mL/minute of 10 mM phosphate buffer, pH 6.8. Those fractions around the expected molecular weight (around 50 kDa) were tested for binding to [^3 H]

[7] = Storage stability of FK-506 in frozen blood; assay type: physicochemical; conditions: frozen (-20° C.) blood
Experimental: The competition-type PBA was conducted as follows. […] Following a 20-minute incubation at 25° C., 100 μL of a reaction mixture was added to a 1.8 mL bed volume Sephadex LH-20 column preequilibrated with 20 mM Tris buffer, pH 7.2-5 mM 2-mercaptoethanol-0.05% NaN3. Elution with five 250 μL portions of this buffer completely separated free from protein-bound radioligand. The protein-bound radioactivity in the 1.25 mL of eluate was measured in 10 mL Optima Gold Scintillation Cocktail (Packard Chemicals, Meriden, Conn.) in a liquid scintillation spectrometer operating at 59% counting efficiency. […] All analyses were performed in duplicate.

[8] = test system: 10-12 kDa immunophilin; assay: Rotamase (peptidyl-prolyl cis-trans isomerase) assay, 10-12 kDa immunophilin; assay type: biochemical; design: key: no activity observed; conditions: rotamase activity with this peptide as substrate
Experimental: (§1) Rotamase activity (cis-trans peptidyl-prolyl isomerase activity) may be assayed in purified immunophilins using the methods of Fischer et al., Nature, 337:476 (1989) and Lange et al., Nature 4 331:453 (1988), which are incorporated herein by reference.
(§2) Only peptidyl propyl cis-trans isomerase activity to kobs values of greater than about 0.5 min^-1 are considered significant. Values below this are not considered to be due to the catalytic properties of the protein being analyzed.

[9] = test system: calf thymus 50-54 kDa immunophilin; assay: Rotamase (peptidyl-prolyl cis-trans isomerase) assay, 50-54 kDa immunophilin; assay type: biochemical; design: key: no activity observed; conditions: rotamase activity with this peptide as substrate
Experimental: as §1, §2

Sequence of 10-12 kDa binding protein (JURKAT cells) (P62942 whole entry): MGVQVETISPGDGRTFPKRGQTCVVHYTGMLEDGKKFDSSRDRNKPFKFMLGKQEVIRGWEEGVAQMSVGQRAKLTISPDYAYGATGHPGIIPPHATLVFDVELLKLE

Structure (SMILES)	kobs, 10-12 kDa [8]	kobs, 50-54 kDa [9]	further results
C=CCC1C=C(C)CC(C)CC(OC)C2OC(O)(C(=O)C(=O)N3CCCCC3C(=O)OC(C(C)=CC3CCC(O)C(OC)C3)C(C)C(O)CC1=O)C(C)CC2OC (stereo not drawn) [FK-506, tacrolimus]			Kd [1]: 1 to 10 nM and ~2 nM; displacement of bound radioligand from the binding sites ([2]; 1 μM unlabelled drug, 20 min): > 95%; binding capacity / specific binding activity [3]: about 0.5 nmol/mg; inhibition of binding of [3H]-CsA to the 50-54 kDa protein ([4]; all concentrations tested): inhibited; binding to purified 50-54 kDa binding protein [5]: bound; inhibition of binding of [3H]-CSA ([6]; isoelectric focusing fraction at pH 6.29): inhibited; time without variability in assay results on storage [7]: at least 30 days
CC(C)C[C@H](NC(=O)[C@@H]1CCCN1C(=O)[C@H](C)NC(=O)[C@H](C)NC(=O)CCC(=O)O)C(=O)Nc1ccc([N+](=O)[O-])cc1 [Suc--Ala--Ala--Pro--Leu--pNA] (Suc-AAPL-pNA)	0.93 min^-1	0.0075 s⁻¹	
C[C@H](NC(=O)CCC(=O)O)C(=O)N[C@@H](CCC(N)=O)C(=O)N1CCC[C@H]1C(=O)N[C@@H](Cc1ccccc1)C(=O)Nc1ccc([N+](=O)[O-])cc1 [Suc--Ala--Gln--Pro--Phe--pNA] (Suc-AQPF-pNA)	0.23 min^-1	0.00367 s⁻¹	
C[C@H](NC(=O)CCC(=O)O)C(=O)N[C@@H](CCC(=O)O)C(=O)N1CCC[C@H]1C(=O)N[C@@H](Cc1ccccc1)C(=O)Nc1ccc([N+](=O)[O-])cc1 [Suc--Ala--Glu--Pro--Phe--pNA] (Suc-AEPF-pNA)	a	a	
C[C@H](NC(=O)CCC(=O)O)C(=O)NCC(=O)N1CCC[C@H]1C(=O)N[C@@H](Cc1ccccc1)C(=O)Nc1ccc([N+](=O)[O-])cc1 [Suc--Ala--Gly--Pro--Phe--pNA] (Suc-AGPF-pNA)	a	0.00667 s⁻¹	
C[C@H](NC(=O)CCC(=O)O)C(=O)N[C@@H](Cc1c[nH]cn1)C(=O)N1CCC[C@H]1C(=O)N[C@@H](Cc1ccccc1)C(=O)Nc1ccc([N+](=O)[O-])cc1 [Suc--Ala--His--Pro--Phe--pNA] (Suc-AHPF-pNA)	a	0.001 s⁻¹	
CC[C@H](C)[C@H](NC(=O)[C@H](C)NC(=O)CCC(=O)O)C(=O)N1CCC[C@H]1C(=O)N[C@@H](Cc1ccccc1)C(=O)Nc1ccc([N+](=O)[O-])cc1 [Suc--Ala--Ile--Pro--Phe--pNA] (Suc-AIPF-pNA)	0.69 min^-1	0.00033 s⁻¹	
CC(C)C[C@H](NC(=O)[C@H](C)NC(=O)CCC(=O)O)C(=O)N1CCC[C@H]1C(=O)N[C@@H](Cc1ccccc1)C(=O)Nc1ccc([N+](=O)[O-])cc1 [Suc--Ala--Leu--Pro--Phe--pNA] (Suc-ALPF-pNA)	1.61 min^-1	0.00267 s⁻¹	
C[C@H](NC(=O)CCC(=O)O)C(=O)N[C@@H](CCCCN)C(=O)N1CCC[C@H]1C(=O)N[C@@H](Cc1ccccc1)C(=O)Nc1ccc([N+](=O)[O-])cc1 [Suc--Ala--Lys--Pro--Phe--pNA]	0.36 min^-1	0.004 s⁻¹	
CCCC[C@H](NC(=O)[C@H](C)NC(=O)CCC(=O)O)C(=O)N1CCC[C@H]1C(=O)N[C@@H](Cc1ccccc1)C(=O)Nc1ccc([N+](=O)[O-])cc1 [Suc--Ala--Nle--Pro--Phe--pNA]	0.58 min^-1	0.00417 s⁻¹	
C[C@H](NC(=O)CCC(=O)O)C(=O)N[C@@H](Cc1ccccc1)C(=O)N1CCC[C@H]1C(=O)N[C@@H](Cc1ccccc1)C(=O)Nc1ccc([N+](=O)[O-])cc1 [Suc--Ala--Phe--Pro--Phe--pNA]	3.0 min^-1	0.003 s⁻¹	
C[C@H](NC(=O)CCC(=O)O)C(=O)N[C@@H](Cc1c[nH]c2ccccc12)C(=O)N1CCC[C@H]1C(=O)N[C@@H](Cc1ccccc1)C(=O)Nc1ccc([N+](=O)[O-])cc1 [Suc--Ala--Trp--Pro--Phe--pNA] (Suc-AWPF-pNA)	0.21 min^-1	0.00233 s⁻¹	
O=C(O)CCC(=O)N[C@@H](Cc1ccccc1)C(=O)N1CCC[C@H]1C(=O)N[C@@H](Cc1ccccc1)C(=O)Nc1ccc([N+](=O)[O-])cc1 [Suc--Phe--Pro--Phe--pNA] (Suc-Phe-Pro-Phe-pNA)	0.63 min^-1	0.001 s⁻¹	
CO[C@H]1C[C@@H]2CC[C@@H](C)[C@@](O)(O2)C(=O)C(=O)N2CCCC[C@H]2C(=O)O[C@H]([C@H](C)C[C@@H]2CC[C@@H](O)[C@H](OC)C2)CC(=O)[C@H](C)/C=C(\C)[C@@H](O)[C@@H](OC)C(=O)[C@H](C)C[C@H](C)/C=C/C=C/C=C/1C [rapamycin]			IC50 ([4]; 1.8 pmol [3H-dihydro]-FK-506, 15 minutes at 25° C., read-out: B50, inhibition of [3H-dihydro]-FK506 binding): 0.1 nM; effect on binding of [3H]-CSA to the 50-54 kDa protein ([4]; concentrations as high as 300 nM): not affected; binding to purified 50-54 kDa binding protein [5]: bound; Kd ([5]; read-out: dissociation constant, 50-54 kDa protein, unit inferred): 0.1 to 0.2 nM; inhibition of [3H-dihydro]-FK-506 binding in all fractions ([6]; 0.7 (unit uncertain)): inhibited; competition for CsA binding to 16-18 kDa and 50-54 kDa fractions ([6]; 70 (unit uncertain)): did not compete
CCC[C@@H]1/C=C(\C)C[C@H](C)C[C@H](OC)[C@H]2O[C@@](O)(C(=O)C(=O)N3CCCC[C@H]3C(=O)O[C@H](/C(C)=C/[C@@H]3CC[C@@H](O)[C@H](OC)C3)[C@H](C)[C@@H](O)CC1=O)[C@H](C)C[C@@H]2OC [tritiated dihydro FK506]			Kd ([2]; saturation experiments, 0.25 to 20 nM): 4.5 nM
[3H]CC([3H])C[C@@H]1/C=C(\C)C[C@H](C)C[C@H](OC)[C@H]2O[C@@](O)(C(=O)C(=O)N3CCCC[C@H]3C(=O)O[C@H](/C(C)=C/[C@@H]3CC[C@@H](O)[C@H](OC)C3)[C@H](C)[C@@H](O)CC1=O)[C@H](C)C[C@@H]2OC (stereo partly drawn) [tritiated dihydro FK506]			Hill coefficients ([2]; saturation experiments): near unity
